Reference: patent US11691949B2, “Quinoline sulfonamide compounds and their use as antibacterial agents” (OTAGO INNOVATION LIMITED, priority 2017, dated 2023)
≈ marks a conversion by molar mass, not a printed value. Counter-ions that a name gives are not always drawn. Like-named read-outs stand apart in the source and are kept apart here.

Key:
Format in all cases: cell-based
S. uberis ATCC 19436 = assay: MIC by broth microdilution, S. uberis; settings: Streptococcus uberis
Summary of the method: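 The MIC against S. uberis ATCC 19436 was the lowest compound concentration showing no growth by OD600 after 24 h at 37° C. with 200 rpm shaking. Cultures grown overnight were adjusted to OD600 ~0.025 so wells held approximately 5×10^5 cfu/mL in THB. Two-fold dilution series were made at a final volume of 200 μl. Media and untreated controls were run in triplicate on each plate.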

S. aureus ATCC 6538 = assay: MIC by broth microdilution, S. aureus; settings: Staphylococcus aureus
Summary of the method: (§1)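 Two-fold serial dilutions were tested in broth at ~5×10^5 cfu/mL: S. aureus in TSB or CAMHB, E. coli in LB or CAMHB, with 50 μM zinc sulphate added as required. After 24 h at 37° C, 200 rpm, MIC was the lowest concentration showing no growth by OD600.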

E. coli ATCC 10596 = assay: MIC by broth microdilution, E. coli; settings: Escherichia coli
Summary of the method: as §1

[1] = ATCC19436, No Zinc, read-out: S. uberis ATCC 19436 MIC
[2] = ATCC19436, Zinc (50 μM), read-out: S. uberis ATCC 19436 MIC
[3] = ATCC6538, No Zinc, read-out: S. aureus ATCC 6538 MIC
[4] = ATCC6538, Zinc (50 μM), read-out: S. aureus ATCC 6538 MIC
[5] = ATCC 10536 / ATCC 10596, No Zinc, read-out: E. coli ATCC 10536 MIC
[6] = ATCC 10536 / ATCC 10596, Zinc (50 μM), read-out: E. coli ATCC 10536 MIC
[7] = ATCC19436, read-out: S. uberis ATCC 19436 MIC, No Zinc
[8] = ATCC19436, read-out: S. uberis ATCC 19436 MIC, Zinc (50 μM)
[9] = ATCC6538, read-out: S. aureus ATCC 6538 MIC, No Zinc
[10] = ATCC6538, read-out: S. aureus ATCC 6538 MIC, Zinc (50 μM)
[11] = ATCC 10536 / ATCC 10596, read-out: E. coli ATCC 10536 MIC, No Zinc
[12] = ATCC 10536 / ATCC 10596, read-out: E. coli ATCC 10536 MIC, Zinc (50 μM)

Compound	MIC (S. uberis ATCC 19436; [1])	MIC (S. uberis ATCC 19436; [2])	MIC (S. aureus ATCC 6538; [3])	MIC (S. aureus ATCC 6538; [4])	MIC (E. coli ATCC 10596; [5])	MIC (E. coli ATCC 10596; [6])	MIC (S. uberis ATCC 19436; [7])	MIC (S. uberis ATCC 19436; [8])	MIC (S. aureus ATCC 6538; [9])	MIC (S. aureus ATCC 6538; [10])	MIC (E. coli ATCC 10596; [11])	MIC (E. coli ATCC 10596; [12])
CS(=O)(=O)NCc1ccc2cccc(NS(=O)(=O)c3ccc(C(F)(F)F)cc3)c2n1 [ZDR209, N-(2-(Methylsulfonamidomethyl)quinolin-8-yl)-4-(trifluoromethyl)benzenesulfonamide]	> 256 µg/mL	1 µg/mL (≈ 2.18 µM)	> 256 µg/mL	> 256 µg/mL	> 256 µg/mL	> 256 µg/mL						
O=S(=O)(NCc1ccc2cccc(NS(=O)(=O)c3ccc(C(F)(F)F)cc3)c2n1)c1ccccc1 [ZDR210, N-(2-(Phenylsulfonamidomethyl)quinolin-8-yl)-4-(trifluoromethyl)benzenesulfonamide]	> 256 µg/mL	0.25 µg/mL (≈ 0.479 µM)	> 256 µg/mL	> 256 µg/mL	> 256 µg/mL	> 256 µg/mL						
CN(C)CCCC(=O)NCc1ccc2cccc(NS(=O)(=O)c3ccc(C(F)(F)F)cc3)c2n1 [ZDR211, 4-(Dimethylamino)-N-((8-((4-(trifluoromethyl)phenyl)sulfonamido)quinolin-2-yl)methyl)butanamide trifluoroacetate]							64 µg/mL	16 µg/mL	128 µg/mL	64 µg/mL	128 µg/mL	128 µg/mL
CSc1ccc(S(=O)(=O)Nc2cccc3ccc(CN(C)C)nc23)cc1 [ZDR257, N-(2-((Dimethylamino)methyl)quinolin-8-yl)-4-(methylthio)benzenesulfonamide]	> 256 µg/mL	0.0625 µg/mL (≈ 0.161 µM)	> 256 µg/mL	> 256 µg/mL	> 256 µg/mL	> 256 µg/mL						
COc1ccc(S(=O)(=O)Nc2cccc3ccc(CN(C)C)nc23)cn1 [ZDR258, N-(2-((Dimethylamino)methyl)quinolin-8-yl)-6-methoxypyridine-3-sulfonamide]	256 µg/mL (≈ 687 µM)	0.125 µg/mL (≈ 0.336 µM)	> 256 µg/mL	> 256 µg/mL	> 256 µg/mL	> 256 µg/mL						
C=CCS(=O)(=O)Nc1cccc2ccc(CN(C)C)nc12 [ZDR259, N-(2-((Dimethylamino)methyl)quinolin-8-yl)prop-2-ene-1-sulfonamide]	> 256 µg/mL	0.25 µg/mL (≈ 0.819 µM)	> 256 µg/mL	256 µg/mL (≈ 838 µM)	> 256 µg/mL	> 256 µg/mL						
O=C(CNCc1ccc2cccc(NS(=O)(=O)c3ccc(C(F)(F)F)cc3)c2n1)NCCCN1CCCCC1 [ZDR262, N-(3-(Piperidin-1-yl)propyl)-2-(((8-((4-(trifluoromethyl)phenyl)sulfonamido)quinolin-2-yl)methyl)amino)acetamide di-trifluoroacetate]							8 µg/mL (≈ 14.2 µM)	16 µg/mL (≈ 28.4 µM)	64 µg/mL (≈ 114 µM)	128 µg/mL (≈ 227 µM)	32 µg/mL (≈ 56.8 µM)	64 µg/mL (≈ 114 µM)
CN(C)Cc1ccc2cccc(NS(=O)(=O)C3CCNCC3)c2n1 [ZDR263, N-(2-((Dimethylamino)methyl)quinolin-8-yl)piperidine-4-sulfonamide di-trifluoroacetate]							> 256 µg/mL	256 µg/mL (≈ 735 µM)	> 256 µg/mL	> 256 µg/mL	> 256 µg/mL	> 256 µg/mL
O=C(CNCc1ccc2cccc(NS(=O)(=O)c3ccc(C(F)(F)F)cc3)c2n1)NC(CO)(CO)CO [ZDR265, N-(1,3-Dihydroxy-2-(hydroxymethyl)propan-2-yl)-2-(((8-((4-(trifluoromethyl)phenyl)sulfonamido)quinolin-2-yl)methyl)amino)acetamide trifluoroacetate]							128 µg/mL	256 µg/mL	64 µg/mL	64 µg/mL	256 µg/mL	256 µg/mL
NC(=O)CNCc1ccc2cccc(NS(=O)(=O)c3ccc(C(F)(F)F)cc3)c2n1 [ZDR266, 2-(((8-((4-(Trifluoromethyl)phenyl)sulfonamido)quinolin-2-yl)methyl)amino)acetamide trifluoroacetate]							16 µg/mL	16 µg/mL	64 µg/mL	32 µg/mL	128 µg/mL	256 µg/mL
O=C(CNCc1ccc2cccc(NS(=O)(=O)c3ccc(C(F)(F)F)cc3)c2n1)NO [ZDR267, N-hydroxy-2-(((8-((4-(trifluoromethyl)phenyl)sulfonamido)quinolin-2-yl)methyl)amino)acetamide trifluoroacetate]							256 µg/mL	256 µg/mL	256 µg/mL	128 µg/mL	> 256 µg/mL	> 256 µg/mL
CN(C)CCNC(=O)CNCc1ccc2cccc(NS(=O)(=O)c3ccc(C(F)(F)F)cc3)c2n1 [ZDR268, N-(2-(Dimethylamino)ethyl)-2-(((8-((4-(trifluoromethyl)phenyl)sulfonamido)quinolin-2-yl)methyl)amino)acetamide di-trifluoroacetate]							32 µg/mL (≈ 62.8 µM)	16 µg/mL (≈ 31.4 µM)	64 µg/mL (≈ 126 µM)	128 µg/mL (≈ 251 µM)	64 µg/mL (≈ 126 µM)	64 µg/mL (≈ 126 µM)
CNC(=O)CNCc1ccc2cccc(NS(=O)(=O)c3ccc(C(F)(F)F)cc3)c2n1 [ZDR270, N-Methyl-2-(((8-((4-(trifluoromethyl)phenyl)sulfonamido)quinolin-2-yl)methyl)amino)acetamide trifluoroacetate]							16 µg/mL	4 µg/mL	32 µg/mL	32 µg/mL	128 µg/mL	256 µg/mL
CN(C)Cc1ccc2cccc(NS(=O)(=O)c3ccc(Br)cc3)c2n1 [ZDR305, 4-Bromo-N-(2-((dimethylamino)methyl)quinolin-8-yl)benzenesulfonamide]	> 256 µg/mL	0.0625 µg/mL (≈ 0.149 µM)	64 µg/mL (≈ 152 µM)	128 µg/mL (≈ 305 µM)	> 256 µg/mL	> 256 µg/mL						
CN(C)Cc1ccc2cccc(NS(=O)(=O)c3ccc(OC(F)F)cc3)c2n1 [ZDR306, 4-(Difluoromethoxy)-N-(2-((dimethylamino)methyl)quinolin-8-yl)benzenesulfonamide]	128 µg/mL (≈ 314 µM)	0.125 µg/mL (≈ 0.307 µM)	128 µg/mL (≈ 314 µM)	128 µg/mL (≈ 314 µM)	> 256 µg/mL	> 256 µg/mL						
CN(C)Cc1ccc2cccc(NS(=O)(=O)c3ccc(C(C)(C)C)cc3)c2n1 [ZDR307, 4-(tert-Butyl)-N-(2-((dimethylamino)methyl)quinolin-8-yl)benzenesulfonamide]	> 256 µg/mL	0.0625 µg/mL (≈ 0.157 µM)	> 256 µg/mL	> 256 µg/mL	> 256 µg/mL	> 256 µg/mL						
COC(=O)c1cccc(S(=O)(=O)Nc2cccc3ccc(CN(C)C)nc23)c1 [ZDR308, Methyl 3-(N-(2-((dimethylamino)methyl)quinolin-8-yl)sulfamoyl)benzoate]	256 µg/mL (≈ 641 µM)	0.25 µg/mL (≈ 0.626 µM)	256 µg/mL (≈ 641 µM)	> 256 µg/mL	256 µg/mL (≈ 641 µM)	> 256 µg/mL						
CN(C)Cc1ccc2cccc(NS(=O)(=O)c3cccc(Br)c3)c2n1 [ZDR309, 3-Bromo-N-(2-((dimethylamino)methyl)quinolin-8-yl)benzenesulfonamide]	128 µg/mL (≈ 305 µM)	0.125 µg/mL (≈ 0.297 µM)	64 µg/mL (≈ 152 µM)	128 µg/mL (≈ 305 µM)	> 256 µg/mL	> 256 µg/mL						
CN(C)Cc1ccc2cccc(NS(=O)(=O)c3cccc(S(C)(=O)=O)c3)c2n1 [ZDR310, N-(2-((Dimethylamino)methyl)quinolin-8-yl)-3-(methylsulfonyl)benzenesulfonamide]	256 µg/mL (≈ 610 µM)	4 µg/mL (≈ 9.53 µM)	> 256 µg/mL	> 256 µg/mL	> 256 µg/mL	> 256 µg/mL						
